What was measured:
Calu-3 = test: Cytotoxicity against human Calu-3 cells assessed as reduction in cell […] at 10 uM incubated for 24 hrs by cell titer glo luminescent assay; assay type: toxicity, cell-based; conditions: calu-3, 24 h
[1] = Inhibition of MERS-CoV -Mpro using Ac-Abu-Tle-Leu-Gln-ACC as substrate incubated for 2 hrs by FRET based assay; set-up: species or system Middle East respiratory syndrome-related coronavirus
Vero 76 = test: Cytotoxicity against African green monkey Vero 76 cells assessed as reduction in cell […] at 10 uM incubated for 24 hrs by cell titer glo luminescent assay; assay type: toxicity, cell-based; conditions: chlorocebus sabaeus, vero 76, 24 h
[2] = molecular target: T1, Replicase polyprotein 1ab (Severe acute respiratory syndrome coronavirus 2, UniProt P0DTD1); test: Inhibition of recombinant his tagged SARS CoV-2 main protease expressed in Escherichia coli BL21 using Boc-Abu-Tle-Leu-Gln-AMC37 as fluorogenic substrate pre-incubated for 5 mins followed by substrate addition measured after 60 mins by FRET based assay
[3] = Inhibition of recombinant SARS CoV-1 main protease expressed using MCA-AVLQSGFR-K(DNP)-K-NH2 as substrate incubated for 2 hrs by FRET based assay; set-up: species or system Severe acute respiratory syndrome-related coronavirus
[4] = system: Severe acute respiratory syndrome-related coronavirus; test: Inhibition of recombinant SARS CoV-1 main protease expressed using MCA-AVLQSGFR-K(DNP)-K-NH2 as substrate at 10 uM incubated for 2 hrs by FRET based assay
[5] = molecular target: Replicase polyprotein 1ab (Severe acute respiratory syndrome coronavirus 2) (UniProt P0DTD1); test: Time dependent inhibition of recombinant his tagged SARS CoV-2 main protease expressed in Escherichia coli BL21 assessed as ratio of Kinact/Ki using MCA-AVLQSGFR-K(DNP)-K-NH2 as substrate pre-incubated for 5 mins followed by substrate addition measured after 60 mins by FRET based assay
[6] = molecular target: T1, Replicase polyprotein 1ab; test: Inhibition of recombinant his tagged SARS CoV-2 main protease expressed in Escherichia coli BL21 assessed as inhibition constant using Boc-Abu-Tle-Leu-Gln-AMC37 as fluorogenic substrate pre-incubated for 5 mins followed by substrate addition measured after 60 mins by FRET based assay
SARS-CoV-2 [7] = test: microbe, parasite or virus in culture; conditions: Severe acute respiratory syndrome coronavirus 2, Calu-3
[8] = molecular target: T1, Replicase polyprotein 1ab; test: Inhibition of full length SARS CoV-2 main protease expressed in Escherichia coli BL21 (DE3) expression system using Mca-AVLQSGFR-K(Dnp)K as substrate by fluorescence method
SARS-CoV-2 [9] = test: microbe, parasite or virus in culture; conditions: Severe acute respiratory syndrome coronavirus 2, Vero 76
[10] = molecular target: Replicase polyprotein 1ab (Severe acute respiratory syndrome coronavirus 2) (UniProt P0DTD1); test: Inhibition of recombinant his tagged SARS CoV-2 main protease expressed in Escherichia coli BL21 using Boc-Abu-Tle-Leu-Gln-AMC37 as fluorogenic substrate at 10 uM pre-incubated for 5 mins followed by substrate addition measured after 60 mins by FRET based assay relative to control
[11] = Stability of the compound assessed as glutathione reactivity by measuring reduction at pH 7.4 by HPLC/MS method; assay type: physicochemical; conditions: buffer
[12] = molecular target: T1, Replicase polyprotein 1ab; test: Inhibition of SARS CoV-2 main protease

SMILES	Activity (Calu-3)	IC50 [1] [µM]	Activity (Vero 76)	IC50 [2] [µM]	Ratio [5] [M⁻¹ s⁻¹]	Ki [6] [µM]	other results
O=C(Sc1ncccn1)c1ccc(-c2ccccc2)o1	Non-Toxic	0.079	Non-Toxic	0.0181	–	–	–
O=C(Sc1ncccn1)c1ccc2ccccc2n1	Non-Toxic	0.613	Non-Toxic	0.0206	–	–	IC50 [3]: 0.253 µM; inhibition [4]: > 50%
COc1ccc2cc([C@H](C)C(=O)Sc3ncccn3)ccc2c1	–	–	–	0.551	33900	0.021	–
O=C(Sc1nc2ccccc2s1)c1cc2ccccc2s1	–	–	–	0.19	2000	0.161	–
O=C(Sc1nc2ccccc2s1)c1cc2ccccc2[nH]1	Non-Toxic	–	Non-Toxic	0.117	–	0.0726	EC50 (SARS-CoV-2 [7]): 0.137 µM
O=C(Sc1ncccn1)c1cc2ccccc2s1	–	–	–	0.0155	–	–	–
Oc1ccc2ccccc2c1SSc1c(O)ccc2ccccc12	–	–	–	–	–	–	IC50 [8]: 2.35 µM
Cc1nnc(SC(=O)c2cc3ccccc3n2C)s1	Non-Toxic	0.223	Non-Toxic	0.349	–	0.295	EC50 (SARS-CoV-2 [9]): 0.00458 µM; EC50 (SARS-CoV-2 [7]): 0.659 µM
Cc1nnc(SC(=O)c2cc3ccccc3[nH]2)n1C(=O)c1cc2ccccc2[nH]1	–	–	–	0.281	12200	0.0773	–
O=C(Sc1nc2ccccc2s1)c1ccc(-c2ccccc2)s1	–	–	–	0.125	2100	0.042	–
Cc1ccnc(SC(=O)c2cc3ccccc3[nH]2)n1	Non-Toxic	1.31	Non-Toxic	0.0876	–	0.0332	EC50 (SARS-CoV-2 [9]): 0.185 µM; IC50 [3]: 1.52 µM; EC50 (SARS-CoV-2 [7]): 0.734 µM; inhibition [4]: > 50%
Cc1nnc(SC(=O)c2cc3ccccc3o2)s1	–	–	–	0.316	5190	0.0357	–
O=C(Sc1nc2ccccc2s1)c1ccc(-c2ccc(Br)cc2)o1	–	–	–	0.255	1490	0.013	–
O=C(Sc1nc2ccccc2s1)c1ccc(-c2ccccc2)o1	–	–	–	0.166	515	0.612	–
O=C(Sc1ccc(Cl)cc1)c1cc2ccccc2[nH]1	–	–	–	–	–	–	inhibition [10]: 4%
O=C(Sc1ccc(Cl)cc1Cl)c1cc2ccccc2[nH]1	–	–	–	–	–	–	inhibition [10]: 9%
O=C(Sc1nnc(C(F)(F)F)s1)c1cc2ccccc2[nH]1	–	–	–	–	–	–	inhibition [10]: 26%
COc1nnc(SC(=O)c2cc3ccccc3[nH]2)s1	Non-Toxic	0.503	Non-Toxic	0.147	–	0.0844	EC50 (SARS-CoV-2 [7]): 0.0383 µM
CSc1nnc(SC(=O)c2cc3ccccc3[nH]2)s1	Non-Toxic	1.13	Non-Toxic	0.0914	11800	0.043	–
Cc1nnc(SC(=O)c2ccc(-c3ccccc3)[nH]2)s1	–	–	–	0.235	5070	0.605	–
O=C(Sc1ncccn1)c1cc2ccccc2[nH]1	Non-Toxic	0.303	Non-Toxic	0.0114	–	0.0141	IC50 [3]: 0.06 µM; EC50 (SARS-CoV-2 [7]): 0.111 µM; inhibition [4]: > 50%
Cc1nnc(SC(=O)c2ccc3ccccc3c2)s1	Non-Toxic	0.526	Non-Toxic	0.454	–	0.0211	IC50 [3]: 1.65 µM; EC50 (SARS-CoV-2 [7]): 0.045 µM; inhibition [4]: > 50%
Cc1cc(C)nc(SC(=O)c2cc3ccccc3[nH]2)n1	–	–	–	2.03	1790	0.773	–

SMILES	Activity (Calu-3)	IC50 [1] [µM]	Activity (Vero 76)	IC50 [2] [µM]	Ratio [5] [M⁻¹ s⁻¹]	Ki [6] [µM]	other results
Cc1nnc(SC(=O)c2ccc(Br)o2)s1	–	–	–	0.481	–	–	–
Cc1nnc(SC(=O)c2ccc(C#Cc3ccccc3)o2)s1	Non-Toxic	0.378	Non-Toxic	0.25	5200	0.0344	IC50 [3]: 2.76 µM; inhibition [4]: > 50%
O=C(Sc1nc2ccccc2s1)c1cc2ccccc2o1	–	–	–	–	–	–	inhibition [10]: 14%
Cc1cc(C)nc(SC(=O)c2ccc(C#Cc3ccccc3)o2)n1	–	–	–	0.288	–	–	–
O=C(NCCN1C(=O)C=CC1=O)c1cc2ccccc2[nH]1	–	–	–	–	–	–	IC50 [8]: 2.08 µM
CCOc1nnc(SC(=O)c2cc3ccccc3[nH]2)s1	–	–	–	–	–	–	inhibition [10]: 37%
O=C(Sc1nncs1)c1cc2ccccc2[nH]1	Non-Toxic	0.535	Non-Toxic	0.143	–	0.0744	EC50 (SARS-CoV-2 [9]): 0.642 µM; IC50 [3]: 3.21 µM; EC50 (SARS-CoV-2 [7]): 0.562 µM; inhibition [4]: > 50%
O=C(Sc1nc2ccccc2s1)c1ccc2ccccc2n1	–	–	–	0.0889	5450	0.051	Stability [11]: Stable
O=C(Oc1cncc(Cl)c1)c1cccc2[nH]ccc12	Non-Toxic	–	Non-Toxic	–	–	–	EC50 (SARS-CoV-2 [9]): 0.00959 µM; EC50 (SARS-CoV-2 [7]): 0.0285 µM
Cc1nnc(SC(=O)c2cccc3cc[nH]c23)s1	Non-Toxic	0.196	Non-Toxic	0.159	–	0.25	IC50 [3]: 2.15 µM; EC50 (SARS-CoV-2 [7]): 0.437 µM; inhibition [4]: > 50%
O=C(Sc1ncccn1)c1ccc(-c2ccc(Br)cc2)s1	Non-Toxic	–	Non-Toxic	0.0144	–	–	–
CC(C)C[C@H](NC(=O)OCc1ccccc1)C(=O)N[C@H](C=O)CC1CCNC1=O (stereo partly drawn)	–	0.078	–	–	–	–	IC50 [3]: 0.0446 µM
S=C(SSC(=S)N1CCOCC1)N1CCOCC1	–	–	–	–	–	–	IC50 [12]: 4.03 µM
Cc1nnc(SC(=O)c2ccc3cc[nH]c3c2)s1	Non-Toxic	0.271	Non-Toxic	0.0547	5850	0.186	–
Cc1nnc(SC(=O)c2ccc3[nH]ccc3c2)s1	Non-Toxic	0.945	Non-Toxic	0.0723	3370	0.393	IC50 [3]: 7.35 µM
O=C(Sc1nnc(C(F)(F)F)s1)c1ccc(C#Cc2ccccc2)o1	–	–	–	–	–	–	inhibition [10]: 14%
Cc1nnc(SC(=O)c2ccc(-c3ccccc3)o2)s1	Non-Toxic	–	Non-Toxic	0.0344	–	–	EC50 (SARS-CoV-2 [7]): 0.1 µM
CCC(CC)COC(=O)[C@H](C)N[P@](=O)(OC[C@H]1O[C@@](C#N)(c2ccc3c(N)ncnn23)[C@H](O)[C@@H]1O)Oc1ccccc1	Non-Toxic	–	Non-Toxic	–	–	–	EC50 (SARS-CoV-2 [9]): 0.00263 µM; EC50 (SARS-CoV-2 [7]): 0.0796 µM
Cc1nnc(SC(=O)c2cc3ccccc3[nH]2)o1	–	–	–	1.22	3880	0.119	–
Cc1nnc(SC(=O)c2cccc3[nH]ccc23)s1	Non-Toxic	0.486	Non-Toxic	0.06	–	–	EC50 (SARS-CoV-2 [7]): 0.367 µM
O=C(Sc1ncccn1)c1ccc(-c2ccccc2)s1	–	–	–	0.0137	–	–	–
CCOc1ccc2cc(C(=O)Sc3nccc(C)n3)[nH]c2c1	–	–	–	–	–	–	inhibition [10]: -8%
Cc1nnc(SC(=O)c2cc3ccccc3[nH]2)s1	–	–	–	0.624	–	–	–

From ChEMBL document CHEMBL5131566, “Small-Molecule Thioesters as SARS-CoV-2 Main Protease Inhibitors: Enzyme Inhibition, Structure-Activity Relationships, Antiviral Activity, and X-ray Structure Determination” (J Med Chem, 2022)
